Measured values from US10597388B2, “Pyridazinone herbicides” (FMC CORPORATION, priority 2014, dated 2020).

Tests used:
Format in all cases: in vivo
[1] = test system: waterhemp_RES2 (ALS & HPPD resistant common waterhemp, Amaranthus rudis); assay: Test E greenhouse herbicide test, postemergence
Method in brief: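 Values are visual ratings from 0 (no effect) to 100 (complete control), scored relative to untreated controls 14 to 21 d after treatment. Plants were 1- to 4-leaf seedlings (2 to 18 cm) in potting medium and received postemergence applications of formulated test chemicals.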

[2] = test system: bluegrass (annual bluegrass, Poa annua); assay: Test D controlled growth environment herbicide test, pre- and postemergence; details: for Bluegrass plant response rating / Plant response rating (scale of 0 to 100), Bluegrass: 31 g ai/ha
Excerpt: (§1) Seeds of plant species selected from bluegrass (annual bluegrass, Poa annua), blackgrass (Alopecurus myosuroides), Canada thistle (Cirsium arvense), canarygrass (Phalaris minor), chickweed (common chickweed, Stellaria media), geranium, cutleaf (cutleaf geranium, Geranium dissectum), galium (catchweed bedstraw, Galium aparine), bromegrass, downy (downy bromegrass, Bromus tectorum), field poppy (Papaver rhoeas), field violet (Viola arvensis), foxtail, green (green foxtail, Setaria viridis), deadnettle (henbit deadnettle, Lamium amplexicaule), ryegrass, Italian (Italian ryegrass, Lolium multiflorum), kochia (Kochia scoparia), lambsquarters (Chenopodium album), oilseed rape (Brassica napus), pigweed (Amaranthus retroflexus), chamomile (scentless chamomile, Matricaria inodora), Russian thistle (Salsola kali), speedwell (bird's-eye speedwell, Veronica persica), barley, spring (spring barley, Hordeum vulgare), wheat, spring (spring wheat, Triticum aestivum), buckwheat, wild (wild buckwheat, Polygonum convolvulus), mustard, wild (wild mustard, Sinapis arvensis), oat, wild (wild oat, Avena fatua), radish, wild (wild radish, Raphanus raphanistrum), windgrass (Apera spica-venti), barley, winter (winter barley, Hordeum vulgare), and wheat, winter (winter wheat, Triticum aestivum) were planted into a silt loam soil and treated preemergence with test chemicals formulated in a non-phytotoxic solvent mixture which included a surfactant.
(§2) At the same time, these species were planted in pots containing Redi-Earth® planting medium (Scotts Company, 14111 Scottslawn Road, Marysville, Ohio 43041) comprising spaghnum peat moss, vermiculite, wetting agent and starter nutrients and treated with postemergence applications of the test chemicals formulated in the same manner. Plants ranged in height from 2 to 18 cm (1- to 4-leaf stage). Treated plants and controls were maintained in a controlled growth environment for 14 to 21 d after which time all species were compared to controls and visually evaluated. Plant response ratings, summarized in Table D, are based on a scale of 0 to 100 where 0 is no effect and 100 is complete control. A dash (-) response means no test result.

[3] = test system: speedwell (bird's-eye speedwell, Veronica persica); assay: as above; details: for Speedwell plant response rating / Plant response rating (scale of 0 to 100), Speedwell: 31 g ai/ha
Excerpt: as §1, §2

[4] = test system: oat, wild (wild oat, Avena fatua); assay: as above; details: for Oat, Wild plant response rating / Plant response rating (scale of 0 to 100), Oat, Wild: 31 g ai/ha
Excerpt: as §1, §2

[5] = test system: barley, winter (winter barley, Hordeum vulgare); assay: as above; details: for Barley, Winter plant response rating / Plant response rating (scale of 0 to 100), Barley, Winter: 31 g ai/ha
Excerpt: as §1, §2

[6] = test system: windgrass (Apera spica-venti); assay: as above; details: for Windgrass plant response rating / Plant response rating (scale of 0 to 100), Windgrass: 31 g ai/ha
Excerpt: as §1, §2

[7] = test system: field violet (Viola arvensis); assay: as above; details: for Field Violet plant response rating / Plant response rating (scale of 0 to 100), Field Violet: 31 g ai/ha
Excerpt: as §1, §2

[8] = test system: pigweed (Amaranthus retroflexus); assay: as above; details: for Pigweed plant response rating / Plant response rating (scale of 0 to 100), Pigweed: 31 g ai/ha
Excerpt: as §1, §2

[9] = test system: Russian thistle (Salsola kali); assay: as above; details: for Russian Thistle plant response rating / Plant response rating (scale of 0 to 100), Russian Thistle: 31 g ai/ha
Excerpt: as §1, §2

[10] = test system: wheat, winter (winter wheat, Triticum aestivum); assay: as above; details: for Wheat, Winter plant response rating / Plant response rating (scale of 0 to 100), Wheat, Winter: 31 g ai/ha
Excerpt: as §1, §2

[11] = test system: radish, wild (wild radish, Raphanus raphanistrum); assay: as above; details: for Radish, Wild plant response rating / Plant response rating (scale of 0 to 100), Radish, Wild: 31 g ai/ha
Excerpt: as §1, §2

[12] = 31 g ai/ha, visual, scale 0 no effect to 100 complete control
[13] = 62 g ai/ha, scale 0 to 100 (0 no effect, 100 complete control)
[14] = 125 g ai/ha, scale 0 to 100 (0 no effect, 100 complete control)
[15] = Postemergence, scale 0 to 100 (0 no effect, 100 complete control)
[16] = Postemergence, 125 g ai/ha, visual rating on scale 0 (no effect) to 100 (complete control), 14 to 21 d
[17] = Postemergence, 250 g ai/ha, scale 0 to 100 (0 no effect, 100 complete control)
[18] = Preemergence, 62 g ai/ha, scale 0 to 100 (0 no effect, 100 complete control)
[19] = Preemergence, 125 g ai/ha, scale 0 to 100 (0 no effect, 100 complete control)
[20] = Preemergence, 250 g ai/ha, scale 0 to 100, 0 no effect, 100 complete control
[21] = postemergence, 62 g ai/ha, scale 0 to 100, 0 no effect, 100 complete control

Cc1ccc2sc(C)c(-c3c(OC(=O)OC(C)C)c(C)nn(C)c3=O)c2c1 [Compound 66]
20: Plant response rating, Russian Thistle [9, 18]
5: Plant response rating, Barley, Winter [5, 17] | Radish, Wild plant response rating [11, 15]
85: Oat, Wild plant response rating [4, 15] | Plant response rating, Oat, Wild [4, 18] | Plant response rating, Oat, Wild [4, 19] | Plant response rating, Windgrass [6, 16] | Plant response rating, Windgrass [6, 19] | Plant response rating, Windgrass [6, 20] | Field Violet plant response rating [7, 15] | Plant response rating, Field Violet [7, 18]
70: Plant response rating, Speedwell [3, 16] | Plant response rating, Speedwell [3, 21] | Plant response rating (scale of 0 to 100), Windgrass ([6]; Preemergence) | Plant response rating, Radish, Wild [11, 18] | Plant response rating, Radish, Wild [11, 20]
55: Speedwell plant response rating [3, 15]
15: Plant response rating, Bluegrass [2, 18]
95: Plant response rating, Oat, Wild [4, 21] | Plant response rating, Field Violet [7, 16] | Plant response rating, Field Violet [7, 17] | Plant response rating, Field Violet [7, 19] | Plant response rating, Field Violet [7, 21] | Pigweed plant response rating [8, 15]
75: Plant response rating, Speedwell [3, 17] | Plant response rating (scale of 0 to 100), Speedwell ([3]; Preemergence) | Plant response rating (scale of 0 to 100), Oat, Wild ([4]; Preemergence) | Windgrass plant response rating [6, 15] | Plant response rating, Windgrass [6, 18] | Russian Thistle plant response rating [9, 15] | Plant response rating, Russian Thistle [9, 16] | Plant response rating, Radish, Wild [11, 19]
80: Plant response rating, Windgrass [6, 21] | Plant response rating, Russian Thistle [9, 17] | Plant response rating, Russian Thistle [9, 21]
90: Plant response rating, Oat, Wild [4, 20] | Plant response rating, Russian Thistle [9, 20]
30: Plant response rating, Bluegrass [2, 16] | Plant response rating, Bluegrass [2, 20] | Plant response rating (scale of 0 to 100), Pigweed ([8]; Preemergence) | Plant response rating, Radish, Wild [11, 16] | Plant response rating (scale of 0 to 100), Radish, Wild ([11]; Preemergence)
60: Plant response rating (scale of 0 to 100), Field Violet ([7]; Preemergence) | Plant response rating, Russian Thistle [9, 19]
25: Plant response rating, Bluegrass [2, 19] | Plant response rating, Bluegrass [2, 21] | Plant response rating, Radish, Wild [11, 21]
50: Plant response rating, Waterhemp_RES2 [1, 14]
98: Plant response rating, Field Violet [7, 20]
45: Plant response rating, Radish, Wild [11, 17]
40: Plant response rating, Waterhemp_RES2 ([1]; 16 g ai/ha, visual, scale 0 no effect to 100 complete control) | Plant response rating, Waterhemp_RES2 [1, 12] | Plant response rating, Waterhemp_RES2 [1, 13]
0: Bluegrass plant response rating [2, 15] | Barley, Winter plant response rating [5, 15] | Plant response rating, Barley, Winter [5, 16] | Plant response rating (scale of 0 to 100), Barley, Winter ([5]; Preemergence) | Plant response rating, Barley, Winter [5, 18] | Plant response rating, Barley, Winter [5, 19] | Plant response rating, Barley, Winter [5, 21] | Plant response rating (scale of 0 to 100), Russian Thistle ([9]; Preemergence) | Wheat, Winter plant response rating [10, 15] | Plant response rating, Wheat, Winter [10, 16] | Plant response rating, Wheat, Winter [10, 17] | Plant response rating (scale of 0 to 100), Wheat, Winter ([10]; Preemergence) | Plant response rating, Wheat, Winter [10, 18] | Plant response rating, Wheat, Winter [10, 19] | Plant response rating, Wheat, Winter [10, 20] | Plant response rating, Wheat, Winter [10, 21]
10: Plant response rating (scale of 0 to 100), Bluegrass ([2]; Preemergence) | Plant response rating, Barley, Winter [5, 20]
35: Plant response rating, Bluegrass [2, 17]
100: Plant response rating, Speedwell [3, 18] | Plant response rating, Speedwell [3, 19] | Plant response rating, Speedwell [3, 20] | Plant response rating, Oat, Wild [4, 16] | Plant response rating, Oat, Wild [4, 17] | Plant response rating, Windgrass [6, 17] | Plant response rating, Pigweed [8, 16] | Plant response rating, Pigweed [8, 17] | Plant response rating, Pigweed [8, 18] | Plant response rating, Pigweed [8, 19] | Plant response rating, Pigweed [8, 20] | Plant response rating, Pigweed [8, 21]

Cc1nn(C)c(=O)c(-c2ccc(Br)c3ccccc23)c1O [Compound 75]
5: Plant response rating, Barley, Winter [5, 17]
20: Plant response rating, Wheat, Winter [10, 19]
75: Plant response rating, Waterhemp_RES2 ([1]; 250 g ai/ha, scale 0 to 100 (0 no effect, 100 complete control))
60: Plant response rating, Waterhemp_RES2 [1, 12] | Plant response rating, Waterhemp_RES2 [1, 13] | Plant response rating, Waterhemp_RES2 [1, 14]
10: Bluegrass plant response rating [2, 15] | Plant response rating, Bluegrass [2, 19] | Plant response rating, Bluegrass [2, 21] | Windgrass plant response rating [6, 15]
50: Oat, Wild plant response rating [4, 15] | Plant response rating, Windgrass [6, 19]
25: Plant response rating, Russian Thistle [9, 19]
15: Plant response rating, Bluegrass [2, 16] | Plant response rating, Bluegrass [2, 17] | Plant response rating (scale of 0 to 100), Bluegrass ([2]; Preemergence) | Plant response rating, Bluegrass [2, 18] | Plant response rating, Windgrass [6, 18] | Plant response rating, Windgrass [6, 21] | Plant response rating, Wheat, Winter [10, 20]
95: Plant response rating (scale of 0 to 100), Speedwell ([3]; Preemergence) | Field Violet plant response rating [7, 15] | Plant response rating, Field Violet [7, 16] | Plant response rating (scale of 0 to 100), Field Violet ([7]; Preemergence) | Radish, Wild plant response rating [11, 15]
0: Barley, Winter plant response rating [5, 15] | Plant response rating, Barley, Winter [5, 16] | Plant response rating (scale of 0 to 100), Barley, Winter ([5]; Preemergence) | Plant response rating, Barley, Winter [5, 18] | Plant response rating, Barley, Winter [5, 19] | Plant response rating, Barley, Winter [5, 20] | Plant response rating, Barley, Winter [5, 21] | Plant response rating (scale of 0 to 100), Windgrass ([6]; Preemergence) | Plant response rating (scale of 0 to 100), Russian Thistle ([9]; Preemergence) | Plant response rating, Russian Thistle [9, 18] | Wheat, Winter plant response rating [10, 15] | Plant response rating, Wheat, Winter [10, 16] | Plant response rating, Wheat, Winter [10, 17] | Plant response rating (scale of 0 to 100), Wheat, Winter ([10]; Preemergence) | Plant response rating, Wheat, Winter [10, 18] | Plant response rating, Wheat, Winter [10, 21]
55: Plant response rating (scale of 0 to 100), Oat, Wild ([4]; Preemergence)
65: Plant response rating, Oat, Wild [4, 18] | Plant response rating, Windgrass [6, 17]
85: Plant response rating, Oat, Wild [4, 16] | Plant response rating, Oat, Wild [4, 20] | Plant response rating, Windgrass [6, 20] | Plant response rating (scale of 0 to 100), Pigweed ([8]; Preemergence) | Plant response rating, Russian Thistle [9, 16] | Plant response rating, Russian Thistle [9, 17]
70: Plant response rating, Oat, Wild [4, 21] | Plant response rating, Radish, Wild [11, 18]
40: Plant response rating, Windgrass [6, 16] | Plant response rating (scale of 0 to 100), Radish, Wild ([11]; Preemergence)
35: Plant response rating, Bluegrass [2, 20] | Plant response rating, Russian Thistle [9, 20]
100: Plant response rating, Speedwell [3, 16] | Plant response rating, Speedwell [3, 17] | Plant response rating, Speedwell [3, 18] | Plant response rating, Speedwell [3, 19] | Plant response rating, Speedwell [3, 20] | Plant response rating, Speedwell [3, 21] | Plant response rating, Field Violet [7, 17] | Plant response rating, Field Violet [7, 18] | Plant response rating, Field Violet [7, 19] | Plant response rating, Field Violet [7, 20] | Plant response rating, Field Violet [7, 21] | Pigweed plant response rating [8, 15] | Plant response rating, Pigweed [8, 16] | Plant response rating, Pigweed [8, 17] | Plant response rating, Pigweed [8, 18] | Plant response rating, Pigweed [8, 19] | Plant response rating, Pigweed [8, 20] | Plant response rating, Pigweed [8, 21] | Plant response rating, Radish, Wild [11, 16] | Plant response rating, Radish, Wild [11, 17] | Plant response rating, Radish, Wild [11, 19] | Plant response rating, Radish, Wild [11, 20] | Plant response rating, Radish, Wild [11, 21]
80: Speedwell plant response rating [3, 15] | Plant response rating, Oat, Wild [4, 17] | Plant response rating, Oat, Wild [4, 19] | Russian Thistle plant response rating [9, 15] | Plant response rating, Russian Thistle [9, 21]
